Here are results for 1 molecule from PMC7762786, “The discovery of novel antitrypanosomal 4-phenyl-6-(pyridin-3-yl)pyrimidines” (European Journal of Medicinal Chemistry, 2021).

Holding throughout (conditions): 10 μM, result in words
One data set concerns the target T1, HDAC1 (Homo sapiens, UniProt Q13547).
T1 construct: purchased BPS Bioscience (San Diego, USA)
As to the kind of experiment: Histone deacetylase assay (HDAC-Glo I/II). Type of data set: biochemical. On the procedure: (§1) Cytotoxicity was also determined against 786-O and A549 cells.
(§2) Experiments for determining pre-clinical in vitro ADME-Tox activities were performed as described by Moraes et al. and also described in the following sections 4.3.2.1 to 4.3.2.4.
(§3) Inhibition of histone deacetylase (HDAC) enzymes was determined using the bioluminogenic HDAC-Glo™ I/II assay (Promega Corp.) in 384-well assay format. Human recombinant HDAC enzymes were purchased from BPS Bioscience (San Diego, USA) and the standard inhibitor trichostatin A (Sigma-Aldrich) was dissolved to a yield stock solution in 100% v/v DMSO (stored at −20 °C). Plate handling was performed using a Cell Explorer HTS platform equipped with an Echo 550® Liquid Handler and Multidrop liquid handling system with luminescence measurements taken using an EnVision® multilabel 2103 reader. Compounds were added to plates (100 nL/well; 1% v/v DMSO) and the HDAC-Glo™ I/II assay reagent was prepared by (i) rehydration of lyophilised HDAC-Glo™ I/II substrate (with an acetylated peptide concentration of 100 μM) in 10 mL HDAC-Glo™ I/II assay buffer and (ii) addition of 10 μL of developer reagent (containing trypsin). The microtiter plates were mixed briefly by orbital shaking (500–700 rpm) and luminescence was measured at steady-state signal:background which was achieved after 20 min. The raw data were normalised relative to the positive and negative controls yielding the % inhibition for each compound.

The next data set deals with T2, HDAC6 (Homo sapiens, UniProt Q9UBN7).
T2 construct: purchased BPS Bioscience (San Diego, USA)
T2 sequence (Q9UBN7 1-1215): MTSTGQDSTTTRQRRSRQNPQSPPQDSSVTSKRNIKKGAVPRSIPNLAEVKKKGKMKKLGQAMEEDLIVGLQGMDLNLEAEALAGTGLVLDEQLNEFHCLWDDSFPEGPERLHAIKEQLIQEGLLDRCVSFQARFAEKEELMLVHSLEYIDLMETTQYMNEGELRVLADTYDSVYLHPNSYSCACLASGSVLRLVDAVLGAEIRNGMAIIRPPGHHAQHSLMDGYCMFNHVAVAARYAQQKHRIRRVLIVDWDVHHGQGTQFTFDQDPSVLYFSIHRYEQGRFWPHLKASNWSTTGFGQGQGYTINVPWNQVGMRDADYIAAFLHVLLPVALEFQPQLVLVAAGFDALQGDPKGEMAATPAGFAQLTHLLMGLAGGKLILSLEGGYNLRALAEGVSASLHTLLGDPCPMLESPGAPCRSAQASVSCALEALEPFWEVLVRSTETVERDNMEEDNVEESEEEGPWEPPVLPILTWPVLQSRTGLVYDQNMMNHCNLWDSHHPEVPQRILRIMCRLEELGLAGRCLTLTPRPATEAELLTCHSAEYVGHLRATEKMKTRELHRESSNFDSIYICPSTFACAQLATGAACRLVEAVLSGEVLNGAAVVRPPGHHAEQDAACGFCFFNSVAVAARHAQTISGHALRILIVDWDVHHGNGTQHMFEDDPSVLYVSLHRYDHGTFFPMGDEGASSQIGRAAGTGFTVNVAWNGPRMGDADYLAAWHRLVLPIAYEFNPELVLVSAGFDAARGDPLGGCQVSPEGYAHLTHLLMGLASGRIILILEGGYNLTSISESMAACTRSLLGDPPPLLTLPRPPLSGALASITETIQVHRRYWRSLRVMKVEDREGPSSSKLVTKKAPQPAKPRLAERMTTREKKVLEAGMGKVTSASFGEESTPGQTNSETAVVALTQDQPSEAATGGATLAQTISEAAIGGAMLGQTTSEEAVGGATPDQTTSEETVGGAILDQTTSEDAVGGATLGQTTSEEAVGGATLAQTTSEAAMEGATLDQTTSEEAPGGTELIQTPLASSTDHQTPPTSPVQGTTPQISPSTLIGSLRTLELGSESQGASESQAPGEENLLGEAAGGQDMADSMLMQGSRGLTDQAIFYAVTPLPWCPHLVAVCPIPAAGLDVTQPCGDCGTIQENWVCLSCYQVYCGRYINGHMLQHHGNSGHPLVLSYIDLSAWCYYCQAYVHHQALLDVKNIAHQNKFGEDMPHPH
As to the kind of experiment: Histone deacetylase assay (HDAC-Glo I/II). Format: biochemical. As for the experimental part: as §1, §2, §3

In a further data set the target is T3, HDAC3 (Homo sapiens, UniProt O15379).
T3 construct: purchased BPS Bioscience (San Diego, USA)
T3 sequence (O15379 whole entry): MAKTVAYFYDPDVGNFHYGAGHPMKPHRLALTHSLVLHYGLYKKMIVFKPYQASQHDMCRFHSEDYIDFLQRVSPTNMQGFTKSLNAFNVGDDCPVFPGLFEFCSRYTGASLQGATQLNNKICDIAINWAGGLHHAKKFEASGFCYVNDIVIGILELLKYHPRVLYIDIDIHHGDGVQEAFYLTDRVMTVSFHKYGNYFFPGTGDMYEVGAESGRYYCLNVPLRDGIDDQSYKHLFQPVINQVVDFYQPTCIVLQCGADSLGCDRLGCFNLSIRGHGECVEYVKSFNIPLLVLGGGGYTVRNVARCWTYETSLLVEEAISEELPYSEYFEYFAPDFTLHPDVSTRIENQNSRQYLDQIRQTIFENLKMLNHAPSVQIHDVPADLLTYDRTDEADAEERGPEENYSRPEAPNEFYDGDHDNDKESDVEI
T3 sequence (Q9Y618 395-489 partner limits assumed): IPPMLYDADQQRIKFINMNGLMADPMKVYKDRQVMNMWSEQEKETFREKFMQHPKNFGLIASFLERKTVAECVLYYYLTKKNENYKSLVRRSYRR
As to the kind of experiment: Histone deacetylase assay (HDAC-Glo I/II). Type of data set: biochemical. On the procedure:
as §1, §2, §3

Another data set deals with T4, hERG (Homo sapiens, UniProt Q12809).
T4 construct: purchased Invitrogen
T4 sequence (Q12809 whole entry): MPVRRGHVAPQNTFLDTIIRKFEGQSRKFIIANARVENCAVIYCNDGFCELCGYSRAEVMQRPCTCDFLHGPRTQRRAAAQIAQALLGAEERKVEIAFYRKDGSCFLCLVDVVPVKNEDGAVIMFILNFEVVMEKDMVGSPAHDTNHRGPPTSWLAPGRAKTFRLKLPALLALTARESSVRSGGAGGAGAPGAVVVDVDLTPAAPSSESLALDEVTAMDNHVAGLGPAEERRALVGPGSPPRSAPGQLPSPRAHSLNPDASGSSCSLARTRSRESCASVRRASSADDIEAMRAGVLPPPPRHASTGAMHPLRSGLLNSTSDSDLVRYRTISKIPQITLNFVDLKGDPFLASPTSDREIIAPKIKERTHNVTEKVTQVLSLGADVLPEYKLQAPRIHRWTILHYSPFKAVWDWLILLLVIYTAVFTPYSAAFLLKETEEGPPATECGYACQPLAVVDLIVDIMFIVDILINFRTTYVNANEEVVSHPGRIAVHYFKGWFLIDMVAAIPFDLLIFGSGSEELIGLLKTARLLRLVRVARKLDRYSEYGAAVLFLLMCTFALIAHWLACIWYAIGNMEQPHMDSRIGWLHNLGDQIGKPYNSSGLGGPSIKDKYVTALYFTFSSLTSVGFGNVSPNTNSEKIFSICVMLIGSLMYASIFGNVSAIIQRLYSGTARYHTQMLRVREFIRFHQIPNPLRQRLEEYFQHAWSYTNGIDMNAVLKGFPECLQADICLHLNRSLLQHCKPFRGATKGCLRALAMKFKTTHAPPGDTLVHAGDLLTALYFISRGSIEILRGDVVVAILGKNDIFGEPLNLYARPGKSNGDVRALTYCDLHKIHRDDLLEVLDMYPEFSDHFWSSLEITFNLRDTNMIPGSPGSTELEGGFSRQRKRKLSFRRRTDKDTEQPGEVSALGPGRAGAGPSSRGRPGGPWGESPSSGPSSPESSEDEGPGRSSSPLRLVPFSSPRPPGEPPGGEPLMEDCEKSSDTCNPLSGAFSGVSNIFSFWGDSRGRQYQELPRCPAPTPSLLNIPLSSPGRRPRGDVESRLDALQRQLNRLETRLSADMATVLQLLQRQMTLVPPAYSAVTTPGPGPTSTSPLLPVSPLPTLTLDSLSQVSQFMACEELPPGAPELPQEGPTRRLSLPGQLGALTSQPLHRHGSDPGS
As to the kind of experiment: hERG cardiotoxicity assay (Predictor hERG Fluorescence Polarisation). Type of data set: binding. On the procedure:
as §1, §2
The Invitrogen Predictor™ hERG Fluorescence Polarisation Assay was used in 384-well assay format. […] The plates were incubated for 2 h at 25 °C in a humidity-controlled incubator and the fluorescence polarisation was measured using an EnVision® multilabel 2103 reader. […] The raw data were normalised relative to the positive and negative controls yielding the % cardiotoxicity for each compound.

T1 sequence (Q13547 whole entry): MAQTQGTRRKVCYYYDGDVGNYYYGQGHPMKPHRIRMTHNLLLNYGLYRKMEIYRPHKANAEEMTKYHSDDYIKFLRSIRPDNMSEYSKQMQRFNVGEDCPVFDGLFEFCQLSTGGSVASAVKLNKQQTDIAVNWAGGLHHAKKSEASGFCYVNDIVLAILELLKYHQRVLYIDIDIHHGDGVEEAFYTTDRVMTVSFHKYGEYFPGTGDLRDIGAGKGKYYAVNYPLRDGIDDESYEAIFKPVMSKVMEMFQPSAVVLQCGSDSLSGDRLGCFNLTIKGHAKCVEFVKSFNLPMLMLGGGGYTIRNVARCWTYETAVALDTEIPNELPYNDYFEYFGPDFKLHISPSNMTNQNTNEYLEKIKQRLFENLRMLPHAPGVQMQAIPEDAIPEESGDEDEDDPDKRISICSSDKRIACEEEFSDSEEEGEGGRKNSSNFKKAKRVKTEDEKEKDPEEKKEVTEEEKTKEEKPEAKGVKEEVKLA

As to `COc1ccccc1-c1cc(-c2cccnc2)nc(N)n1` [Compound 13, 4-(2-Methoxyphenyl)-6-(pyridin-3-yl)pyrimidin-2-amine], on HDAC1, the HDAC1 inhibition entry is listed as “No inhibition”. The HDAC6 inhibition entry on HDAC6 was “No inhibition”. In addition, the HDAC3 inhibition entry on HDAC3 is “No inhibition”. For the same molecule, the hERG cardiotoxicity result on hERG is listed as “no notable”.
